From patent US8178490B2, “Polybasic bacterial efflux pump inhibitors and therapeutic uses thereof” (priority 2007, dated 2012)
Converted amounts (≈) assume the structure as drawn.

Experiments:
[1] = test system: P. aeruginosa PAM1723, overexpressing the MexABOprM efflux pump; assay type: cell-based, Pseudomonas aeruginosa; details: lowest inhibitor concentration giving antibacterial activity with levofloxacin at 1/8 of its MIC
Excerpt: (§1) EPI activity is defined as concentration of an EPI compound that is necessary to achieve ½ of a maximum theoretical effect in increase of antibiotic susceptibility due to efflux inhibition. The maximum theoretical effect, Emax, is defined as a ratio of antibacterial activity of antibiotics (minimal inhibitory concentration, MIC) of pump overexpressing vs. pump lacking strains. […] The strain PAM1723, overexpressing the MexABOprM efflux pump was used as a test strain. […] Azithromycin was used as test antibiotic to assess the EPI activity in Klebsiella pneumoniae. The strain KPM1004 overexpressing the AcrABTolC efflux pump was used as a test strain. […] Thus, EPI activity, that is assessed in K. pneumoniae, is a concentration of an EPI compound that is necessary to increase susceptibility to azithromicin of KPM1004 sixteen fold.
(§2) The EPI activity of the test compounds was assessed by the checkerboard assay (Antimicrobial Combinations, Antibiotics in Laboratory Medicine, Ed. Victor Lorian, M.D., Fourth edition, 1996, pp 333338, which is incorporated herein by reference in its entirety) using a broth microdilution method performed as recommended by the NCCLS (National Committee for Clinical Laboratory Standards (NCCLS), 1997, Methods for Dilution of Antimicrobial Susceptibility Tests for Bacteria That Grow Aerobically, Fourth Edition; Approved Standard. NCCLS Document M7A4, Vol 17 No. 2, which is incorporated herein by reference in its entirety). […] All EPI compounds were readily soluble in water and stock solutions were prepared at a final concentration of 10 mg/ml. Stock solutions were further diluted, according to the needs of the particular assay, in Mueller Hinton Broth (MHB). Stock solution was stored at −80° C. The checkerboard assay was performed in microtiter plates. […] EPIs were diluted in the axis, each row containing a single concentration of an EPI. […] The assay was performed in MHB with a final bacterial (PAM1723 or […]) inoculum of 5 times 10^5 CFU/ml (from an early log phase culture). Microtiter plates were incubated during 20 h at 35° C. and were read using a microtiter plate reader (Molecular Devices) at 650 nm as well as visual observation using a microtiter plate reading mirror.
(§3) Azithromycin potentiation activities of selected inhibitors for K. pneumoniae are reported as MPC16 values.

[2] = test system: Klebsiella pneumoniae KPM1004 overexpressing the AcrABTolC efflux pump; test: microbe, parasite or virus in culture; assay type: cell-based; details: for MPC16 (μg/mL) Azithromycin, KPM1004): lowest inhibitor concentration giving antibacterial activity with azithromycin at 1/16 of its MIC, K. pneumoniae KPM1004
Excerpt: as §1, §2, §3

[3] = Rat serum pharmacokinetics after 1.5-hour IV infusion; assay type: in vivo; details: […] IV infusion in 0.9% saline, total dose 2, 5, 10 or 20 mg/kg, two-compartment model
Procedure: In the experiment depicted in Table 7, above, rat serum pharmacokinetics of selected inhibitor compounds was evaluated after 1.5-hour IV infusion of 1.5 ml solution of corresponding efflux pump inhibitor in 0.9% saline. Depending on the concentration used the total infused dose was 2, 5, 10 or 20 mg/kg. A two-compartment model was used to fit the data and calculate PK parameters.

[4] = test system: Klebsiella pneumoniae KPM1007 which lacks efflux; test: microbe, parasite or virus in culture; assay type: cell-based; details: read-out: Azithromycin MIC

Cl.Cl.Cl.Cl.NCCN(CCN)C(=S)C(C[C@H](N)C(=O)N[C@H](Cc1ccc(C(F)(F)F)cc1)C(N)=O)c1cnc2ccccc2c1 (stereo partly drawn) [Compound 12, 3-[(1S)-3-[bis(2-azaniumylethyl)carbamothioyl]-1-{[(1R)-1-carbamoyl-2-[4-(trifluoromethyl)phenyl]ethyl]carbamoyl}propan-1-aminium]quinolin-1-ium tetrachloride]
MPC8 (μg/mL) (Levofloxacin, PAM1723) [1]: 1.25 µg/mL | MPC16 (μg/mL) Azithromycin, KPM1004) [2]: 1.25 µg/mL

3-[(1S)-3-[bis(2-azaniumylethyl)carbamoyl]-1-{[(1S)-1-carbamoyl-2-[4-(trifluoromethyl)phenyl]ethyl]carbamoyl}propan-1-aminium]quinolin-1-ium tetrachloride [Compound 28]
MPC8 (μg/mL) (Levofloxacin, PAM1723) [1]: 1.25 µg/mL | MPC16 (μg/mL) Azithromycin, KPM1004) [2]: 1.25 µg/mL

Cl.Cl.Cl.Cl.Cl.NCCNCCN(CCN)C(=O)C[C@H](N)C(=O)N[C@@H](CCc1ccccc1)C(=O)Nc1cnc2ccccc2c1 [Compound 188, 3-[(2S)-2-[(1S)-2-[(2-azaniumylethyl)({2-[(2-azaniumylethyl)azaniumyl]ethyl})carbamoyl]-1-formamidoethan-1-aminium]-4-phenylbutanamido]quinolin-1-ium pentachloride]
MPC8 (μg/mL) (Levofloxacin, PAM1723) [1]: 0.6 µg/mL | MPC16 (μg/mL) Azithromycin, KPM1004) [2]: 1.25 µg/mL

Cl.Cl.Cl.Cl.NCCN(CCN)C(=O)C[C@H](Nc1ccc2ncccc2c1)C(=O)N[C@@H](CC1CCCCC1)C(N)=O [Compound 13, 6-[(1S)-2-[bis(2-azaniumylethyl)carbamoyl]-1-{[(1S)-1-carbamoyl-2-cyclohexylethyl]carbamoyl}ethan-1-aminium]quinolin-1-ium tetrachloride]
MPC8 (μg/mL) (Levofloxacin, PAM1723) [1]: 1.25 µg/mL

NCCN(CCN)C(=O)CC[C@H](N)C(=O)N/C(=C/c1ccc(C(F)(F)F)cc1)C(=O)Nc1cnc2ccccc2c1 [Compound 4, 3-[(1S)-3-[bis(2-azaniumylethyl)carbamoyl]-1-{[(1E)-1-carbamoyl-2-[4-(trifluoromethyl)phenyl]eth-1-en-1-yl]carbamoyl}propan-1-aminium]quinolin-1-ium tetrachloride]
MPC8 (μg/mL) (Levofloxacin, PAM1723) [1]: 1.25 µg/mL | MPC16 (μg/mL) Azithromycin, KPM1004) [2]: 1.25 µg/mL

3-[(1S)-3-[bis(2-azaniumylethyl)carbamoyl]-1-{[(1S,2R)-1-carbamoyl-2-hydroxy-2-[4-(trifluoromethyl)phenyl]ethyl]carbamoyl}propan-1-aminium]quinolin-1-ium tetrachloride [Compound 3]
MPC8 (μg/mL) (Levofloxacin, PAM1723) [1]: 1.25 µg/mL | MPC16 (μg/mL) Azithromycin, KPM1004) [2]: 1.25 µg/mL | pharmacokinetic profile [3]: particularly attractive pharmacokinetic profiles

CC[C@H]1OC(=O)[C@H](C)[C@@H](O[C@H]2C[C@@](C)(OC)[C@@H](O)[C@H](C)O2)[C@H](C)[C@@H](O[C@@H]2O[C@H](C)C[C@H](N(C)C)[C@H]2O)[C@](C)(O)C[C@@H](C)CN(C)[C@H](C)[C@@H](O)[C@]1(C)O [Azithromycin, reference compound]
MIC ([2]; Klebsiella pneumoniae, read-out: Azithromycin MIC): 32 µg/mL | Emax (ratio of MIC of pump overexpressing vs. pump lacking strains) ([2]; azithromycin, KPM1004 vs KPM1007): 256 | MIC [4]: 0.125 µg/mL (≈ 0.167 µM)

3-[(1S)-3-[bis(2-azaniumylethyl)carbamoyl]-1-{[(1R)-1-carbamoyl-2-[4-(trifluoromethyl)phenyl]ethyl]carbamoyl}propan-1-aminium]quinolin-1-ium tetrachloride [Compound 1]
MPC8 (μg/mL) (Levofloxacin, PAM1723) [1]: 0.3 µg/mL | MPC16 (μg/mL) Azithromycin, KPM1004) [2]: 0.6 µg/mL

3-[(1S)-3-[bis(2-azaniumylethyl)carbamoyl]-1-{[(1S)-1-carbamoyl-2-[4-(trifluoromethyl)phenyl]ethyl](methyl)carbamoyl}propan-1-aminium]quinolin-1-ium tetrachloride [Compound 5]
MPC8 (μg/mL) (Levofloxacin, PAM1723) [1]: 0.6 µg/mL
